Laboratory results reported in US12240828B2, “Heteroaromatic compounds as vanin inhibitors” (Boehringer Ingelheim International GmbH, priority 2018, dated 2025).
pIC50: −log10 of the molar value.

Columns and labels:
[1] = target: T1, FLAG-tagged Vanin-1 (AA 22-493, T26I) (Homo sapiens, UniProt O95497, T26I); experiment: Vanin-1 enzymatic assay; assay type: biochemical; conditions: 0.1 nM Vanin-1, 3 μM D-pantethine, pantothenic acid formation by RapidFire MS; geometric mean if multiple measurements; read-out: VNN-1 IC50
T1 construct: FLAG-tagged Vanin-1 (AA 22-493, T26I, produced internally); FLAG; made in house
T1 sequence (O95497 22-493 T26I): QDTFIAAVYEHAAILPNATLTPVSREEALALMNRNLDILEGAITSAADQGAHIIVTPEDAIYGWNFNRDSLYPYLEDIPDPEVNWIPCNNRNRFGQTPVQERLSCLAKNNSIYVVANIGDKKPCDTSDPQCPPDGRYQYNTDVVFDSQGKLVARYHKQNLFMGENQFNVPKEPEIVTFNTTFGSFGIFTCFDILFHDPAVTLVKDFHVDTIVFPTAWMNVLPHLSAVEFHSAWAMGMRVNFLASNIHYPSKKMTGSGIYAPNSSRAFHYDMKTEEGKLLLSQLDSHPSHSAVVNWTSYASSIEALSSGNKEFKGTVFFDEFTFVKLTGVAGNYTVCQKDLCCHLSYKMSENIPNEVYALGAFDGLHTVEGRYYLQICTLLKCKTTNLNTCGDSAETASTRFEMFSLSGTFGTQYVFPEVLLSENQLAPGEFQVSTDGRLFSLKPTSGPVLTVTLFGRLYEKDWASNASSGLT
Procedure: The test compounds are dissolved in 100% DMSO at a concentration of 10 mM and in a first step diluted in DMSO to a concentration of 5 mM, followed by serial dilution steps in 100% DMSO. Dilution factor and number of dilution steps may vary according to needs. Typically 8 different concentrations by 1:5 dilutions are prepared, a further intermediate dilutions of the substances is carried out with assay buffer resulting in 1% final DMSO concentration in the assay.
0.1 nM of FLAG-tagged Vanin-1 (AA 22-493, T26I, produced internally) and test compounds are incubated at room temperature for 20 minutes in assay buffer (1 mM DTT, 0.0025% Brij-35, 50 mM HEPES, pH7.5). D-Pantethine (Sigma, Cat #P2125-5G) in assay buffer is added (final concentration 3 μM) and incubated for additional 30 minutes at room temperature. Total assay volume typically is 40 μl but might be adjusted according to needs. Reaction is stopped by adding equal volume of stop solution as the reaction mixture to reach 100 nM HD-pantothenic acid (as an internal standard) and 1% TFA. Assay plates are centrifuged for 2 minutes and the formation of pantothenic acid is detected by RapidFire Mass Spectrometry (mobile phase A: 0.1% formic acid and 0.01% trifluoroacetic acid in water; mobile phase B: 47.5% acetonitrile, 47.5% methanol, 0.1% formic acid and 0.01% trifluoroacetic acid in water) using a C18, 12 μL cartridge (Agilent Cat #G9205A).
The values given in Table I result from measurements of one or more samples. In case of multiple measurements the geometric mean values are given.

Pantetheinase (vanin) = experiment: Human Whole Blood assay; assay type: cell-based; conditions: pantethine substrate, pantothenic acid formation by RapidFire MS, read-out: HWB IC50
Procedure: Human Whole Blood assay: Pantetheinase (vanin) converts panteheine into pantothenic acid and cysteamine. Accordingly, in the described protocol vanin activity is quantified by formation of pantothenic acid after pantetheine supplementation via pantethine. The assay is applicable to identify vanin inhibitors. Compound stocks are dissolved in DMSO at 10 mM. Further dilutions are performed in RPMI 1640 medium (Gibco, #A-10491-01) and final concentrations in the assay are 0.032 nM-500 nM.
Human blood is drawn into a blood bag (1% heparin, 50 I.E./mL). Blood is aliquoted into cavities of 96-deep-well plates at 290 μL and mixed with 10 μL compound solution or vehicle (30 sec at 1400 rpm on a shaker). Equilibration follows at room temperature, 250 rpm and for 30 min. The assay is starts by adding 10 μL of substrate solution (20 μM pantethine in 1 mM DTT, 0.0025% Brij-35, 50 mM HEPES, pH7.5) to each well, except for some blank wells which receive […] substrate buffer (1 mM DTT, 0.0025% Brij-35, 50 mM HEPES, pH7.5) only. Samples are thoroughly shaken (30 sec, 1400 rpm) and reaction is allowed to take place at room temperature, 250 rpm and for 5 min. The reaction is stopped by addition of a vanin tool inhibitor in excess (BI-1 total conc. 10 μM). Centrifugation of the plate follows at 4° C., 665 G for 10 min. Then the blood plasma samples (100 μL) are transferred into another 96-deep-well plate and proteins are precipitated (5 min on ice) by adding 100 μL of ice cold precipitation solution (1 μM labelled pantothenic acid (di-β-alanine-13C6,15N2 calcium salt, Sigma, #705837) in acetonitrile). Afterwards the plate is centrifuged (4° C., 3220 G, 10 min) and supernatants (50 μL) are collected into another 96-deep-well plate and mixed (10 sec, 1400 rpm) with 150 μL ice cold formic acid (0.1%, Carl Roth GmbH+Co.KG, #CP03.1). The formation of pantothenic acid is detected by RapidFire Mass Spectrometry. A TripleQuad 6500+ (ABSciex, Germany) is equipped with an LC-1290 system, a RapidFire autosampler (Agilent, Germany) and a C18 cartridge Type C 12 μL (Agilent Cat #G9526-80000). Mobile phase A is consisting of 0.09% formic acid and 0.01% trifluoroacetic acid in water and mobile phase B of 0.09% formic acid and 0.01% trifluoroacetic acid in acetonitrile/methanol/water=47.5/47.5/5.

pIC50 [1]	pIC50 (Pantetheinase (vanin))	SMILES
10.22	8.45	CN(C(=O)C1CC1)[C@H]1CCN(C(=O)c2ccc(NC(C)(C)c3ccccc3)nc2)C1 [Example 2.1, N-Methyl-N-[(3S)-1-{6-[(2-phenylpropan-2-yl)amino]pyridine-3-carbonyl}pyrrolidin-3-yl]cyclopropanecarboxamide]
10.15	8.88	CN(C(=O)C1CCC1)[C@H]1CCN(C(=O)c2ccc(NCc3cccnc3)nc2)C1 [Example 3.1, N-Methyl-N-[(3S)-1-(6-{[(pyridin-3-yl)methyl]amino}pyridine-3-carbonyl)pyrrolidin-3-yl]cyclobutanecarboxamide]
9.38	8.30	CC(=O)N(C)[C@H]1CCN(C(=O)c2ccc(N[C@@H](C)c3ccc(F)cc3F)nc2)C1 [Example 9.6]
9.70	8.35	CC(=O)N(C)[C@H]1CCN(C(=O)c2ccc(N[C@@H](C)c3ccccc3)nc2)C1 [Example 1.2]
9.80	8.48	CC(=O)N(C)[C@H]1CCN(C(=O)c2ccc(NC(C)(C)c3cccnc3)nc2)C1 [Example 8.7]
9.85	7.79	CN(c1ncccn1)[C@H]1CCN(C(=O)c2ccc(NCc3cccnc3)nc2)C1 [Example 8.5]
9.92	8.63	CC(C)(Nc1ccc(C(=O)N2CC[C@H](N3CCOC3=O)C2)cn1)c1ccccc1 [Example 4.3]
9.57	8.84	CN(C(=O)C1CC1)[C@H]1CCN(C(=O)c2ccc(NCc3ccc(N)nc3)nc2)C1 [Example 1.24]
9.09	8.63	CC(=O)N(C)[C@H]1CCN(C(=O)c2ccc(NCc3ccccc3)nc2)C1 [Example 1.6]
9.85	8.90	CN(C(=O)C1(C#N)CC1)[C@H]1CCN(C(=O)c2ccc(NC(C)(C)c3ccccc3)nc2)C1 [Example 4.5]
9.32	8.31	CC(=O)N(C)[C@H]1CCN(C(=O)c2ccc(NCc3ccccc3Cl)nc2)C1 [Example 1.4]
10.15	8.35	CN(C(=O)C1CCC1)[C@H]1CCN(C(=O)c2ccc(NC(C)(C)c3ccccc3)nc2)C1 [Example 2.2]
10.15	8.80	Cc1ccncc1CNc1ccc(C(=O)N2CC[C@H](N(C)C(=O)C3CC3)C2)cn1 [Example 1.5]
10.10	9.07	CC1(C#N)CCN(C(=O)c2ccc(NC(C)(C)c3cccnc3)nc2)C1 (stereo not drawn) [Example 8.3]
9.34	8.69	CN(C(=O)C1CC1)[C@H]1CCN(C(=O)c2ccc(NCc3cnccc3C(F)(F)F)nc2)C1 [Example 1.33]
9.48	8.67	CN(C(=O)C1(C)CCC1)[C@H]1CCN(C(=O)c2ccc(NC3(c4cncnc4)CC3)nc2)C1 [Example 8.10]
9.66	8.43	CC(=O)N(C)[C@H]1CCN(C(=O)c2ccc(NC(C)(C)c3ccc(Cl)cc3)nc2)C1 [Example 4.7]
9.62	8.60	COc1ccncc1CNc1ccc(C(=O)N2CC[C@H](N(C)C(=O)C3(C)CCC3)C2)cn1 [Example 1.22]

pIC50 [1]	pIC50 (Pantetheinase (vanin))	SMILES
9.68	8.82	Cc1ncccc1CNc1ccc(C(=O)N2CC[C@H](N(C)C(=O)C3CC3)C2)cn1 [Example 1.15]
9.07	8.01	CC(=O)N(C)[C@H]1CCN(C(=O)c2ccc(NCc3cccs3)nc2)C1 [Example 1.42]
10.05	8.74	CC(=O)N(C)[C@H]1CCN(C(=O)c2ccc(NC(C)c3nccs3)nc2)C1 (single isomer, unassigned) [Example 5.1.A]
9.07	8.49	CC(=O)N(C)[C@H]1CCN(C(=O)c2ccc(NCc3cncc(F)c3)nc2)C1 [Example 1.43]
9.41	8.56	CC(=O)N(C)[C@H]1CCN(C(=O)c2ccc(N[C@@H](C)c3ccc(C(F)(F)F)nc3)nc2)C1 [Example 9.1, N-Methyl-N-[(3S)-1-(6-{[(1S)-1-[6-(trifluoromethyl)pyridin-3-yl]ethyl]amino}pyridine-3-carbonyl)pyrrolidin-3-yl]acetamide]
9.47	8.48	O=C(c1ccc(NCc2cccnc2)nc1)N1CCC2(CCOCC2)C1 [Example 8.11]
9.36	8.58	CN(C(=O)C1(C)CCC1)[C@H]1CCN(C(=O)c2ccc(NCc3ccc(N)nc3)nc2)C1 [Example 1.31]
9.92	8.72	Cc1ccncc1CNc1ccc(C(=O)N2CC[C@H](N(C)C(=O)C3(C)CCC3)C2)cn1 [Example 1.9]
9.59	8.28	CNS(=O)(=O)c1cccc([C@H](C)Nc2ccc(C(=O)N3CC[C@H](N(C)C(C)=O)C3)cn2)c1 [Example 1.23]
8.90	8.30	CC(=O)N(C)[C@H]1CCN(C(=O)c2ccc(NCc3cccc(C#N)c3)nc2)C1 [Example 1.1, N-[(3S)-1-(6-{[(3-Cyanophenyl)methyl]amino}pyridine-3-carbonyl)pyrrolidin-3-yl]-N-methylacetamide]
9.92	8.77	CN(C(=O)C1CC1)[C@H]1CCN(C(=O)c2ccc(NCc3cccnc3)nc2)C1 [Example 1.8]
8.99	8.99	CC(=O)N(C)[C@H]1CCN(C(=O)c2ccc(NCc3cccc(Cl)c3)nc2)C1 [Example 1.3]
9.66	8.58	CC(=O)N(C)[C@H]1CCN(C(=O)c2ccc(N[C@@H](C)c3cccc(S(N)(=O)=O)c3)nc2)C1 [Example 1.19]
9.17	8.23	CC(=O)N(C)[C@H]1CCN(C(=O)c2ccc(NCc3ccc(Cl)cc3)nc2)C1 [Example 4.1, N-[(3S)-1-(6-{[(4-Chlorophenyl)methyl]amino}pyridine-3-carbonyl)pyrrolidin-3-yl]-N-methylacetamide]
9.04	8.15	CN(C)c1ccc(CNc2ccc(C(=O)N3CC[C@H](N(C)C(=O)C4CC4)C3)cn2)cn1 [Example 1.44]
9.01	8.23	COc1ccc(CNc2ccc(C(=O)N3CC[C@H](N(C)C(=O)C4CC4)C3)cn2)cn1 [Example 1.47]
9.89	8.94	CN(C(=O)C1CC(F)(F)C1)[C@H]1CCN(C(=O)c2ccc(NCc3cccnc3)nc2)C1 [Example 8.4]
9.57	8.37	CC(=O)N(C)[C@H]1CCN(C(=O)c2ccc(N[C@@H](C)c3ccc(Cl)cc3)nc2)C1 [Example 9.4]
